Source: ChEMBL document CHEMBL5329155, “Synthesis and pharmacological evaluation of 1,3-diaryl substituted pyrazole based (thio)urea derivatives as potent antimicrobial agents against multi-drug resistant Staphylococcus aureus and Mycobacterium tuberculosis” (RSC Med Chem, 2023)
≈ marks a conversion by molar mass, not a printed value. Calls of active or inactive are those of the source. The rule behind the calls is not given here.

Experiments:
Staphylococcus aureus [1] = assay: Antibacterial activity against Staphylococcus aureus ATCC 29213 assessed as inhibition of bacterial growth measured for 18 to 24 hrs by broth dilution method; type: functional; conditions: time 18-24 hrs
[2] = tested on: Mycobacterium tuberculosis; assay: Antimycobacterial activity against Mycobacterium tuberculosis H37Rv ATCC 27294 assessed as inhibition of bacterial growth incubated for 18 to 24 hrs by broth dilution method; type: functional
Staphylococcus aureus [3] = assay: Antibacterial activity against methicillin-susceptible Staphylococcus aureus assessed as reduction in bacterial growth incubated for 18 to 24 hrs by broth dilution method; type: functional; conditions: time 18-24 hrs
Staphylococcus aureus [4] = assay: Antibacterial activity against methicillin/ceftriaxone/meropenem/gentamycin/linezolid resistant Staphylococcus aureus NRS 100 assessed as reduction in bacterial growth incubated for 18 to 24 hrs by broth dilution method; type: functional; conditions: time 18-24 hrs
Staphylococcus aureus [5] = assay: Antibacterial activity against methicillin/ceftriaxone/meropenem/gentamycin/linezolid resistant Staphylococcus aureus NRS 119 assessed as reduction in bacterial growth incubated for 18 to 24 hrs by broth dilution method; type: functional; conditions: time 18-24 hrs
Staphylococcus aureus [6] = assay: Antibacterial activity against methicillin/ceftriaxone/meropenem resistant Staphylococcus aureus NRS 129 assessed as reduction in bacterial growth incubated for 18 to 24 hrs by broth dilution method; type: functional; conditions: time 18-24 hrs
Staphylococcus aureus [7] = assay: Antibacterial activity against methicillin/ceftriaxone/meropenem resistant Staphylococcus aureus NRS 186 assessed as reduction in bacterial growth incubated for 18 to 24 hrs by broth dilution method; type: functional; conditions: time 18-24 hrs
Staphylococcus aureus [8] = assay: Antibacterial activity against methicillin/ceftriaxone/meropenem resistant Staphylococcus aureus NRS 191 assessed as reduction in bacterial growth incubated for 18 to 24 hrs by broth dilution method; type: functional; conditions: time 18-24 hrs
Staphylococcus aureus [9] = assay: Antibacterial activity against methicillin/ceftriaxone/meropenem resistant Staphylococcus aureus NRS 192 assessed as reduction in bacterial growth incubated for 18 to 24 hrs by broth dilution method; type: functional; conditions: time 18-24 hrs
Staphylococcus aureus [10] = assay: Antibacterial activity against methicillin/ceftriaxone/meropenem resistant Staphylococcus aureus NRS 193 assessed as reduction in bacterial growth incubated for 18 to 24 hrs by broth dilution method; type: functional; conditions: time 18-24 hrs
Staphylococcus aureus [11] = assay: Antibacterial activity against methicillin/ceftriaxone resistant Staphylococcus aureus NRS 194 assessed as reduction in bacterial growth incubated for 18 to 24 hrs by broth dilution method; type: functional; conditions: time 18-24 hrs
Staphylococcus aureus [12] = assay: Antibacterial activity against methicillin/ceftriaxone/meropenem resistant Staphylococcus aureus NRS 198 assessed as reduction in bacterial growth incubated for 18 to 24 hrs by broth dilution method; type: functional; conditions: time 18-24 hrs
Staphylococcus aureus [13] = assay: Antibacterial activity against methicillin/ceftriaxone/meropenem/gentamycin/vancomycin/teicoplanin resistant Staphylococcus aureus VRS 1 assessed as reduction in bacterial growth incubated for 18 to 24 hrs by broth dilution method; type: functional; conditions: time 18-24 hrs
Staphylococcus aureus [14] = assay: Antibacterial activity against methicillin/ceftriaxone/meropenem/vancomycin/teicoplanin resistant Staphylococcus aureus VRS 4 assessed as reduction in bacterial growth incubated for 18 to 24 hrs by broth dilution method; type: functional; conditions: time 18-24 hrs
Staphylococcus aureus [15] = assay: Antibacterial activity against methicillin/ceftriaxone/meropenem/vancomycin/teicoplanin resistant Staphylococcus aureus VRS 12 assessed as reduction in bacterial growth incubated for 18 to 24 hrs by broth dilution method; type: functional; conditions: time 18-24 hrs
[16] = Cytotoxicity against African green monkey Vero cells assessed as reduction in cell viability incubated for 72 hrs by MTT assay; type: toxicity, cell-based; conditions: chlorocebus sabaeus
[17] = Selectivity index, ratio of CC50 for cytotoxicity against African green monkey Vero cells assessed as reduction in cell viability to MIC for antibacterial activity against Mycobacterium tuberculosis H37Rv ATCC 27294 assessed as inhibition of bacterial growth; type: toxicity, cell-based; conditions: read-out: Selectivity Index
[18] = tested on: Mycobacterium tuberculosis; assay: Antimycobacterial activity against isoniazid-resisitant Mycobacterium tuberculosis ATCC 35822 assessed as inhibition of bacterial growth incubated for 18 to 24 hrs by broth dilution method; type: functional; conditions: time 18-24 hrs
[19] = tested on: Mycobacterium tuberculosis; assay: Antimycobacterial activity against ethambutol-resisitant Mycobacterium tuberculosis ATCC 35837 assessed as inhibition of bacterial growth incubated for 18 to 24 hrs by broth dilution method; type: functional; conditions: time 18-24 hrs
[20] = tested on: Mycobacterium tuberculosis; assay: Antimycobacterial activity against streptomycin-resisitant Mycobacterium tuberculosis ATCC 35820 assessed as inhibition of bacterial growth incubated for 18 to 24 hrs by broth dilution method; type: functional; conditions: time 18-24 hrs
[21] = tested on: Mycobacterium tuberculosis; assay: Antimycobacterial activity against rifampicin-resisitant Mycobacterium tuberculosis ATCC 35838 assessed as inhibition of bacterial growth incubated for 18 to 24 hrs by broth dilution method; type: functional; conditions: time 18-24 hrs
[22] = Metabolic stability in human liver microsome assessed as elimination rate constant at 1 uM preincubated for 5 mins followed by NADPH addition and measured after 60 mins by LC-MS/MS analysis; type: ADME; conditions: liver microsomes, time 65 min
[23] = Metabolic stability in human liver microsome assessed as half life at 1 uM preincubated for 5 mins followed by NADPH addition and measured after 60 mins by LC-MS/MS analysis; type: ADME; conditions: liver microsomes, time 65 min
[24] = Metabolic stability in human liver microsome assessed as intrinsic clearance at 1 uM preincubated for 5 mins followed by NADPH addition and measured after 60 mins by LC-MS/MS analysis; type: ADME; conditions: liver microsomes, time 65 min, read-out: CLH
[25] = Aqueous solubility of compound in phosphate buffer at pH 7.4 incubated for 16 hrs by HPLC analysis; type: physicochemical
[26] = Selectivity index, ratio of CC50 for cytotoxicity against African green monkey Vero cells assessed as reduction in cell viability to MIC for antibacterial activity against Staphylococcus aureus ATCC 29213 assessed as inhibition of bacterial growth; type: toxicity, cell-based; conditions: read-out: Selectivity Index
Staphylococcus aureus [27] = assay: Bacteriostatic activity against Staphylococcus aureus ATCC 29213 at 4 to 8 times MIC incubated for 2 to 24 hrs by time kill assay; type: functional, organism-based; conditions: time 2-24 hrs
[28] = biological target: DNA gyrase (Escherichia coli) (UniProt P0AES6+P0AES4); assay: Inhibition of Escherichia coli DNA gyrase supercoiling activity assessed as reduction in linear DNA formation at 8 times MIC incubated for 90 mins; type: protein-complex assay
[29] = tested on: Mycobacterium tuberculosis; assay: Antimycobacterial activity against Mycobacterium tuberculosis H37Rv assessed as reduction in bacterial growth; type: functional
Staphylococcus aureus [30] = assay: Antibacterial activity against methicillin-resistant Staphylococcus aureus assessed as reduction in bacterial growth; type: functional
DNA gyrase = DNA gyrase (Escherichia coli, UniProt P0AES4+P0AES6); assay: Inhibition of Escherichia coli DNA gyrase; type: protein-complex assay
Staphylococcus aureus [31] = assay: Antibacterial activity against Staphylococcus aureus assessed as reduction in bacterial growth; type: functional
[32] = tested on: Mycobacterium tuberculosis; assay: Antimycobacterial activity against Mycobacterium tuberculosis assessed as reduction in bacterial growth; type: functional
[33] = tested on: Mycolicibacterium fortuitum; assay: Antimycobacterial activity against Mycobacterium fortuitum assessed as reduction in bacterial growth incubated for 18 to 24 hrs by broth dilution method; type: functional; conditions: time 18-24 hrs
Mycobacteroides chelonae = assay: Antibacterial activity against Mycobacteroides chelonae assessed as reduction in bacterial growth incubated for 18 to 24 hrs by broth dilution method; type: functional; conditions: time 18-24 hrs

C[C@H]1COc2c(N3CCN(C)CC3)c(F)cc3c(=O)c(C(=O)O)cn1c23 [LEVOFLOXACIN ANHYDROUS]
MIC (Staphylococcus aureus [1]): 0.25 µg/mL (≈ 0.692 µM)
MIC [2]: 0.25 µg/mL (≈ 0.692 µM)
MIC (Staphylococcus aureus [3]): 0.25 µg/mL (≈ 0.692 µM)
MIC (Staphylococcus aureus [4]): 0.25 µg/mL (≈ 0.692 µM)
MIC (Staphylococcus aureus [5]): 16 µg/mL (≈ 44.3 µM)
MIC (Staphylococcus aureus [6]): 0.25 µg/mL (≈ 0.692 µM)
MIC (Staphylococcus aureus [7]): 4 µg/mL (≈ 11.1 µM)
MIC (Staphylococcus aureus [8]): 16 µg/mL (≈ 44.3 µM)
MIC (Staphylococcus aureus [9]): 8 µg/mL (≈ 22.1 µM)
MIC (Staphylococcus aureus [10]): 32 µg/mL (≈ 88.6 µM)
MIC (Staphylococcus aureus [11]): 0.25 µg/mL (≈ 0.692 µM)
MIC (Staphylococcus aureus [12]): 32 µg/mL (≈ 88.6 µM)
MIC (Staphylococcus aureus [13]): 32 µg/mL (≈ 88.6 µM)
MIC (Staphylococcus aureus [14]): 32 µg/mL (≈ 88.6 µM)
MIC (Staphylococcus aureus [15]): 32 µg/mL (≈ 88.6 µM)

COc1ccc(-c2ccn(-c3ccc(NC(=O)NCc4ccccc4)cc3)n2)cc1OC
MIC (Staphylococcus aureus [1]): > 64 µg/mL
MIC [2]: 1 µg/mL (≈ 2.33 µM)
CC50 at 72 h [16]: 20 µg/mL (≈ 46.7 µM)
selectivity ratio [17]: 20

COc1ccc(-c2ccn(-c3ccc(NC(=O)Nc4ccc(F)cc4F)cc3)n2)cc1OC
MIC (Staphylococcus aureus [1]): > 64 µg/mL
MIC [2]: 1 µg/mL (≈ 2.22 µM)
CC50 at 72 h [16]: > 200 µg/mL
selectivity ratio [17]: > 200
MIC [18]: > 64 µg/mL
MIC [19]: 64 µg/mL (≈ 142 µM)
MIC [20]: > 64 µg/mL
MIC [21]: 4 µg/mL (≈ 8.88 µM)
k el at 1 h, 1 µM [22]: 8.33e-05 s⁻¹
half-life at 1 µM [23]: 2.14 h
microsomal CLint at 1 µM [24]: 10.4 µL/min/mg
solubility at 16 h [25]: 6 µg/mL (≈ 13.3 µM)

COc1ccc(-c2ccn(-c3ccc(NC(=O)Nc4ccc(Cl)c(Cl)c4)cc3)n2)cc1OC
MIC (Staphylococcus aureus [1]): 0.25 µg/mL (≈ 0.517 µM)
MIC [2]: 32 µg/mL (≈ 66.2 µM)
CC50 at 72 h [16]: 10 µg/mL (≈ 20.7 µM)
selectivity ratio [26]: 40
MIC (Staphylococcus aureus [3]): 0.25 µg/mL (≈ 0.517 µM)
MIC (Staphylococcus aureus [4]): 0.25 µg/mL (≈ 0.517 µM)
MIC (Staphylococcus aureus [5]): 0.25 µg/mL (≈ 0.517 µM)
MIC (Staphylococcus aureus [6]): 0.25 µg/mL (≈ 0.517 µM)
MIC (Staphylococcus aureus [7]): 0.25 µg/mL (≈ 0.517 µM)
MIC (Staphylococcus aureus [8]): 0.25 µg/mL (≈ 0.517 µM)
MIC (Staphylococcus aureus [9]): 0.25 µg/mL (≈ 0.517 µM)
MIC (Staphylococcus aureus [10]): 0.25 µg/mL (≈ 0.517 µM)
MIC (Staphylococcus aureus [11]): 0.25 µg/mL (≈ 0.517 µM)
MIC (Staphylococcus aureus [12]): 0.25 µg/mL (≈ 0.517 µM)
MIC (Staphylococcus aureus [13]): 0.25 µg/mL (≈ 0.517 µM)
MIC (Staphylococcus aureus [14]): 0.25 µg/mL (≈ 0.517 µM)
MIC (Staphylococcus aureus [15]): 0.25 µg/mL (≈ 0.517 µM)
Activity (Staphylococcus aureus [27]): Active
inhibition [28]: Active
k el at 1 h, 1 µM [22]: 0.0001 s⁻¹
half-life at 1 µM [23]: 1.8 h
microsomal CLint at 1 µM [24]: 12.4 µL/min/mg
solubility at 16 h [25]: 5 µg/mL (≈ 10.3 µM)

COC(=O)c1cc(-c2cccc(NC(=O)Nc3ccc(Cl)c(Cl)c3)c2)on1
MIC [29]: 0.25 µg/mL (≈ 0.615 µM)

S=C(Nc1ccc(Cl)cc1)n1ccc(OCc2ccccc2)n1
MIC (Staphylococcus aureus [30]): 0.15 µM (≈ 0.0516 µg/mL)

COc1ccc(Nc2n[nH]c(/N=C/c3ccc(N4CCCCC4)cc3)c2C(N)=O)cc1
IC50 (DNA gyrase): 7.69 mM

CCOC(=O)c1c(N)csc1-c1cn(-c2ccccc2)nc1-c1ccc(C)cc1
MIC (Staphylococcus aureus [31]): 0.22 µg/mL (≈ 0.545 µM)
IC50 (DNA gyrase): 0.0123 mM

Cc1c(C(=O)NN2CCCCC2)nn(-c2ccc(Cl)cc2Cl)c1-c1ccc(Cl)cc1 [RIMONABANT]
MIC [32]: 25 µg/mL (≈ 53.9 µM)

O=C(Nc1ccc(-n2ccc(-c3cc4ccccc4o3)n2)cc1)c1cc([N+](=O)[O-])cc([N+](=O)[O-])c1
MIC [29]: 0.03 µg/mL (≈ 0.0639 µM)

C[C@@H](O)[C@H]1C(=O)N2C(C(=O)O)=C(S[C@@H]3CN[C@H](C(=O)N(C)C)C3)[C@H](C)[C@H]12 [MEROPENEM]
MIC (Staphylococcus aureus [3]): 0.125 µg/mL (≈ 0.326 µM)
MIC (Staphylococcus aureus [4]): 64 µg/mL (≈ 167 µM)
MIC (Staphylococcus aureus [5]): 64 µg/mL (≈ 167 µM)
MIC (Staphylococcus aureus [6]): 8 µg/mL (≈ 20.9 µM)
MIC (Staphylococcus aureus [7]): 8 µg/mL (≈ 20.9 µM)
MIC (Staphylococcus aureus [8]): 64 µg/mL (≈ 167 µM)
MIC (Staphylococcus aureus [9]): 16 µg/mL (≈ 41.7 µM)
MIC (Staphylococcus aureus [10]): 64 µg/mL (≈ 167 µM)
MIC (Staphylococcus aureus [11]): 2 µg/mL (≈ 5.22 µM)
MIC (Staphylococcus aureus [12]): 64 µg/mL (≈ 167 µM)
MIC (Staphylococcus aureus [13]): 64 µg/mL (≈ 167 µM)
MIC (Staphylococcus aureus [14]): 64 µg/mL (≈ 167 µM)
MIC (Staphylococcus aureus [15]): 2 µg/mL (≈ 5.22 µM)

COc1cc(-c2ccn(-c3ccc(NC(=O)NCc4ccccc4)cc3)n2)cc(OC)c1OC
MIC (Staphylococcus aureus [1]): > 64 µg/mL
MIC [2]: 0.5 µg/mL (≈ 1.09 µM)
MIC [33]: 0.5 µg/mL (≈ 1.09 µM)
MIC (Mycobacteroides chelonae): 1 µg/mL (≈ 2.18 µM)
CC50 at 72 h [16]: < 5 µg/mL
selectivity ratio [17]: < 10
